Columns and labels:
[1] = Lipid lowering effect in normal Wistar rats (Example 4); assay type: in vivo; conditions: gavage once daily for 7 days; dose mg/day/kg body weight: TSA 15, EPA 1500, TTA 150
Description: Phospholipids were measured by the enzymatic method of bioMérieux, Marcy-l{grave over ( )}Etoile, France, Triacylglycerol by the Technicon Method no. SA4-0324L90, USA and Cholesterol by the Technicon Method no. SA4-0305L90, USA.
Male Wistar rats, weighing 180-200 g at the start of the experiment, were housed individually in metal wire cages in a room maintained at 12 h light-dark cycles and a constant temperature of 20±3° C. The animals were acclimatised for one week under these conditions before the start of the experiments.
TTA, TSA and eicosapentaenoic acid (EPA) were suspended in 0.5% (w/v) carboxymethyl cellulose (CMC). Six animals were used for each treatment, and a 0.5% CMC solution was administrated to the rats as control. After administration of the test compound, the rats were fasted for 12 hours and anaesthetised with haloethan. The EPA and the fatty acid derivatives were administered by gastric intubation (gavage) once daily for 7 days. Blood samples were collected by cardiac puncture, and lipid concentrations in plasma were determined as outlined in the method section.

[2] = test system: mitochondrial β-oxidation; test: Effect of fatty acid analogues on mitochondrial β-oxidation in rat liver (Example 18); assay type: in vivo; conditions: [1-14C]-palmitoyl-L-carnitine as substrate
Description: Freshly isolated livers from individual old Zucker rats, were homogenised in ice-cold sucrose buffer (0.25 M sucrose, 10 mM HEPES (pH 7.4) and 2 mM EDTA). Post-nuclear and mitochondrial fractions were prepared using preparative differential centrifugation according to DeDuve et al. (De Duve, C., et al., Biochem. J., 60, 604-617 1955.) Modifications, purity and yield were as described earlier (Garras, A., et al., Biochim. Biophys. Acta, 1255, 154-160 1995.). Acid soluble products were measured in post-nuclear and mitochondrial enriched fractions, using [1-^14C]-palmitoyl-CoA and [1-^14C]-palmitoyl-L-carnitine (Radio-chemical Centre, Amersham, England) as substrates as described earlier (Willumsen, N., et al., J. Lipid Res., 34, 13-22 1993. Carnitine palmitoyltransferase-I and -II activities were measured in the post-nuclear and mitochondrial fractions essentially as described by Bremer (Bremer, J., Biochim. Biophys. Acta, 665, 628-631 1981.) and 3-hydroxy-3-methylglutharyl-CoA synthase was measured according to Clinkenbeard et al. (Clinkenbeard, K. D., et al., J. Biol. Chem, 250, 3108-3116 1975.) in the mitochondrial fractions.
Obese Zucker (fa/fa) rats were given a standard chow either with (n=6) or without (n=5) 0.15% TTA. Following 21 days of treatment, rats were killed by cervical dislocation and the livers were removed. […] Values are expressed as the mean±S.D.

[3] = test system: Salmonella typhimurium; test: Test for mutagenic activity in Salmonella typhimurium strains; assay type: cell-based; conditions: 3-1000 mg/plate (TTA), 2-5000 mg/plate (TSA)
Text: (§1) Tests for mutagenic activity have been performed by Covance Laboratories Limited, England. […] Furthermore, TTA was not mutagenic when tested in mouse lymphoma cells […] L5178Y.

[4] = test system: mouse lymphoma cells, L5178Y; test: Mutagenicity test in mouse lymphoma cells L5178Y; assay type: cell-based; conditions: concentration 2.5-50 mg/ml
Text: as §1

[5] = test system: cultured Chinese hamster ovary cells; test: Chromosomal aberrations in cultured Chinese hamster ovary cells; conditions: doses tested 12-140 mg/ml
[6] = test system: Escherichia coli; test: Test for mutagenic activity in Escherichia coli strains; assay type: cell-based; conditions: 3-1000 mg/plate (TTA), 2-5000 mg/plate (TSA)
Text: as §1

[7] = Hepatic levels of triacylglycerol (Example 17); assay type: in vivo, Wistar rats; conditions: fed 6 days, no prefeeding; TTA 150 mg/kg/day, TTP 300 mg/kg/day
Description: Male Wistar rats had free access to water and rat maintenance chow. They were fed palmitic acid or fatty acid analogues suspended in 0.5% CMC for 6 days. In some experiments TTA or TTP were fed for 3 days before feeding both for 6 days. At the end of the experiment the rats were fasted overnight, killed, the liver removed and homogenized. Triacylglycerol was measured in the homogenate.

## CC/C=C\C/C=C\C/C=C\C/C=C\C/C=C\CCCC(=O)O [EPA, eicosapentaenoic acid, reference compound]
[1]
  Plasma lipids: cholesterol: 18 % reduction of control
  Plasma lipids: triglycerides: 20 % reduction of control

## CCCCCCCCCCCCCCCC(=O)O [Palm, palmitic acid]
[2]
  Mitochondrial β-oxidation activity: 0.47 ± 0.06 nmol/min/mg protein

## CCCCCCCCCCCCCC[Se]CC(=O)O [TSA, Tetradecylselenioacetic acid]
[1]
  Plasma lipids: cholesterol: 20 % reduction of control
  Plasma lipids: triglycerides: 25 % reduction of control
[3]
  Induction of mutations: did not induce mutations
[4]
  Mutagenicity: not to be mutagenic
[5]
  Chromosomal aberrations: no aberrations were induced
[6]
  Induction of mutations: did not induce mutations

## CCCCCCCCCCCCCCSCCC(=O)O [reference compound]
[7]
  Hepatic TG (triacylglycerol): 95.4 ± 14.7 µmol/g
